Test results reported in the supplement of paper PMC10702517.
± gives the standard deviation.

Key:
[1] = chemical recovery into PDMS from spiked human plasma; higher = better extraction; settings: pooled human plasma, extraction method: PES with PDMS
[2] = chemical recovery from spiked human plasma; higher = better extraction; settings: pooled human plasma
[3] = chemical recovery by SPE of plasma after PDMS sampling; higher = better extraction; settings: pooled human plasma, extraction method: HLB SPE of plasma after PES
[4] = extraction method: PES+SPE (3 d PDMS equilibration then HLB SPE)
[5] = extraction method: SPE only (HLB 96-well)
[6] = extraction method: SPE only (HLB 96-well), PES comparison experiment
[7] = extraction method: solvent precipitation (ACN + hexane)
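Throughout, for chemical recovery by SPE of plasma after PDMS sampling: over 400 spiked chemicals quantified by LC-HRMS or GC-HRMS via internal standard calibration, recovery relative to spike mix added to unspiked plasma extract to correct matrix effects.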

Compound: NC(=O)/N=C1\SCCN1Cc1ccc(Cl)nc1 [Thiacloprid amide]
- chemical recovery into PDMS ([1]; equilibration time (d): 1): 2.46 ± 0.75%
- chemical recovery into PDMS ([1]; equilibration time (d): 3): 4 ± 1.4%
- chemical recovery into PDMS ([1]; equilibration time (d): 6): 4.83 ± 0.88%
- chemical recovery [2, 4]: 42.5 ± 3.4%
- chemical recovery [2, 5]: 33.6 ± 3.3%
- chemical recovery [2, 6]: 51.2 ± 7%
- chemical recovery [2, 7]: 78 ± 3.3%
- chemical recovery by SPE of plasma ([3]; equilibration time (d): 1): 51.1 ± 5.3%
- chemical recovery by SPE of plasma ([3]; equilibration time (d): 3): 53.4 ± 4.1%
- chemical recovery by SPE of plasma ([3]; equilibration time (d): 6): 47 ± 2.8%

Compound: N#C/N=C1\SCCN1Cc1ccc(Cl)nc1 [Thiacloprid]
- chemical recovery into PDMS ([1]; equilibration time (d): 1): 18.1 ± 1.4%
- chemical recovery into PDMS ([1]; equilibration time (d): 3): 26.3 ± 4.2%
- chemical recovery into PDMS ([1]; equilibration time (d): 6): 29.8 ± 2.2%
- chemical recovery [2, 4]: 55.5 ± 5.8%
- chemical recovery [2, 5]: 43.4 ± 3.5%
- chemical recovery [2, 6]: 55.7 ± 4.2%
- chemical recovery [2, 7]: 79.2 ± 2.9%
- chemical recovery by SPE of plasma ([3]; equilibration time (d): 1): 39.3 ± 6%
- chemical recovery by SPE of plasma ([3]; equilibration time (d): 3): 33.4 ± 2.5%
- chemical recovery by SPE of plasma ([3]; equilibration time (d): 6): 25.1 ± 4.8%

Compound: CC(=O)c1cc2c(cc1C)C(C)(C)C(C)CC2(C)C (configuration not stated) [Tonalide]
- chemical recovery into PDMS ([1]; equilibration time (d): 1): 49 ± 3.7%
- chemical recovery into PDMS ([1]; equilibration time (d): 3): 48.1 ± 5.2%
- chemical recovery into PDMS ([1]; equilibration time (d): 6): 55.1 ± 2.9%
- chemical recovery [2, 4]: 41.1 ± 12%
- chemical recovery [2, 5]: 17.1 ± 5%
- chemical recovery [2, 6]: 22.3 ± 6.1%
- chemical recovery by SPE of plasma ([3]; equilibration time (d): 1): 0.526 ± 0.91%

Compound: O=C(Nc1ccc(Cl)cc1)Nc1ccc(Cl)c(Cl)c1 [Triclocarban]
- chemical recovery into PDMS ([1]; equilibration time (d): 1): 5.9 ± 0.44%
- chemical recovery into PDMS ([1]; equilibration time (d): 3): 7.7 ± 0.6%
- chemical recovery into PDMS ([1]; equilibration time (d): 6): 8.27 ± 0.72%
- chemical recovery [2, 5]: 35 ± 5%
- chemical recovery [2, 6]: 25.7 ± 4.4%
- chemical recovery [2, 7]: 55.4 ± 4.4%
- chemical recovery by SPE of plasma ([3]; equilibration time (d): 1): 29.8 ± 8.2%
- chemical recovery by SPE of plasma ([3]; equilibration time (d): 3): 28.2 ± 4.9%
- chemical recovery by SPE of plasma ([3]; equilibration time (d): 6): 24.3 ± 4%

Compound: Oc1cc(Cl)ccc1Oc1ccc(Cl)cc1Cl [Triclosan]
- chemical recovery into PDMS ([1]; equilibration time (d): 1): 16 ± 1.1%
- chemical recovery into PDMS ([1]; equilibration time (d): 3): 21 ± 0.84%
- chemical recovery into PDMS ([1]; equilibration time (d): 6): 22 ± 1.5%
- chemical recovery [2, 4]: 49.8 ± 4.3%
- chemical recovery [2, 5]: 34.5 ± 1.1%
- chemical recovery [2, 6]: 40.3 ± 7.5%
- chemical recovery [2, 7]: 40 ± 3.5%
- chemical recovery by SPE of plasma ([3]; equilibration time (d): 1): 24.8 ± 8.3%
- chemical recovery by SPE of plasma ([3]; equilibration time (d): 3): 23.5 ± 2%
- chemical recovery by SPE of plasma ([3]; equilibration time (d): 6): 20.2 ± 3.3%

Compound: CCOC(=O)CC(O)(CC(=O)OCC)C(=O)OCC [Triethylcitrate]
- chemical recovery into PDMS ([1]; equilibration time (d): 1): 23.6 ± 0.89%
- chemical recovery into PDMS ([1]; equilibration time (d): 3): 23.1 ± 3.8%
- chemical recovery into PDMS ([1]; equilibration time (d): 6): 26.2 ± 2.7%
- chemical recovery [2, 4]: 32.4 ± 8.6%
- chemical recovery [2, 5]: 38.1 ± 0.71%
- chemical recovery [2, 6]: 43.2 ± 5%
- chemical recovery by SPE of plasma ([3]; equilibration time (d): 1): 18.1 ± 0.54%
- chemical recovery by SPE of plasma ([3]; equilibration time (d): 3): 26.1 ± 4.4%
- chemical recovery by SPE of plasma ([3]; equilibration time (d): 6): 17 ± 1.2%

Compound: CCOP(=O)(OCC)OCC [Triethylphosphate]
- chemical recovery into PDMS ([1]; equilibration time (d): 6): 15 ± 4.8%
- chemical recovery [2, 5]: 18.9 ± 3.4%
- chemical recovery [2, 6]: 16.6 ± 7.5%
- chemical recovery by SPE of plasma ([3]; equilibration time (d): 1): 12.1 ± 7%
- chemical recovery by SPE of plasma ([3]; equilibration time (d): 3): 15.8 ± 2.1%
- chemical recovery by SPE of plasma ([3]; equilibration time (d): 6): 6.74 ± 1.1%

Compound: O=P(c1ccccc1)(c1ccccc1)c1ccccc1 [Triphenylphosphine oxide]
- chemical recovery into PDMS ([1]; equilibration time (d): 1): 41 ± 1.5%
- chemical recovery into PDMS ([1]; equilibration time (d): 3): 44.6 ± 2.8%
- chemical recovery into PDMS ([1]; equilibration time (d): 6): 43.5 ± 1.5%
- chemical recovery [2, 4]: 58.6 ± 6.1%
- chemical recovery [2, 5]: 54.9 ± 1.4%
- chemical recovery [2, 6]: 51.6 ± 7.2%
- chemical recovery by SPE of plasma ([3]; equilibration time (d): 1): 8.28 ± 1.2%
- chemical recovery by SPE of plasma ([3]; equilibration time (d): 3): 8.53 ± 0.92%
- chemical recovery by SPE of plasma ([3]; equilibration time (d): 6): 6.26 ± 0.28%

Compound: CCCOP(=O)(OCCC)OCCC [Tripropyl phosphate]
- chemical recovery into PDMS ([1]; equilibration time (d): 1): 29.8 ± 6.3%
- chemical recovery into PDMS ([1]; equilibration time (d): 3): 35.3 ± 6.6%
- chemical recovery into PDMS ([1]; equilibration time (d): 6): 33.8 ± 2.4%
- chemical recovery [2, 5]: 35 ± 7.1%
- chemical recovery [2, 6]: 26.4 ± 7.2%
- chemical recovery by SPE of plasma ([3]; equilibration time (d): 1): 1.52 ± 1%
- chemical recovery by SPE of plasma ([3]; equilibration time (d): 3): 1.74 ± 0.42%
- chemical recovery by SPE of plasma ([3]; equilibration time (d): 6): 1.1 ± 0.16%

Compound: CC(CCl)OP(=O)(OC(C)CCl)OC(C)CCl (configuration not stated) [Tris(1-chloro-2-propyl)phosphate]
- chemical recovery into PDMS ([1]; equilibration time (d): 1): 34.1 ± 1.8%
- chemical recovery into PDMS ([1]; equilibration time (d): 3): 44.3 ± 3.9%
- chemical recovery into PDMS ([1]; equilibration time (d): 6): 43.7 ± 3.3%
- chemical recovery [2, 6]: 55 ± 8.9%
- chemical recovery by SPE of plasma ([3]; equilibration time (d): 3): 1.7 ± 2%
- chemical recovery by SPE of plasma ([3]; equilibration time (d): 6): 3.1 ± 2.4%

Compound: O=P(OCCCl)(OCCCl)OCCCl [Tris(2-chloroethyl)phosphate]
- chemical recovery into PDMS ([1]; equilibration time (d): 1): 37.5 ± 1.4%
- chemical recovery into PDMS ([1]; equilibration time (d): 3): 39.8 ± 1.5%
- chemical recovery into PDMS ([1]; equilibration time (d): 6): 40.8 ± 2.8%
- chemical recovery [2, 4]: 52.1 ± 4.5%
- chemical recovery [2, 5]: 47.4 ± 2.1%
- chemical recovery [2, 6]: 52.3 ± 5.5%
- chemical recovery [2, 7]: 69.9 ± 2.8%
- chemical recovery by SPE of plasma ([3]; equilibration time (d): 1): 15 ± 1.6%
- chemical recovery by SPE of plasma ([3]; equilibration time (d): 3): 15 ± 1.8%
- chemical recovery by SPE of plasma ([3]; equilibration time (d): 6): 9.84 ± 0.88%

Compound: O=C1CCCC=CCCCCCCCCCC1 [Velvione]
- chemical recovery into PDMS ([1]; equilibration time (d): 1): 41.7 ± 2.9%
- chemical recovery into PDMS ([1]; equilibration time (d): 3): 43.1 ± 12%
- chemical recovery into PDMS ([1]; equilibration time (d): 6): 40.2 ± 13%
- chemical recovery [2, 5]: 0.134 ± 0.12%
- chemical recovery by SPE of plasma ([3]; equilibration time (d): 1): 1.02 ± 7.1%

Compound: c1ccc(-c2cccc(-c3ccccc3)c2)cc1 [m-Terphenyl]
- chemical recovery into PDMS ([1]; equilibration time (d): 1): 90.2 ± 24%
- chemical recovery into PDMS ([1]; equilibration time (d): 3): 86.8 ± 18%
- chemical recovery into PDMS ([1]; equilibration time (d): 6): 101 ± 37%
- chemical recovery [2, 5]: 0.761 ± 0.18%
- chemical recovery [2, 6]: 2.42 ± 4.8%
- chemical recovery [2, 7]: 34.3 ± 1.4%
- chemical recovery by SPE of plasma ([3]; equilibration time (d): 1): 1.91 ± 3.3%
- chemical recovery by SPE of plasma ([3]; equilibration time (d): 3): 2.9 ± 2.5%
- chemical recovery by SPE of plasma ([3]; equilibration time (d): 6): 2.74 ± 2.4%

Compound: c1ccc(-c2ccccc2-c2ccccc2)cc1 [o-Terphenyl]
- chemical recovery into PDMS ([1]; equilibration time (d): 1): 81.9 ± 26%
- chemical recovery into PDMS ([1]; equilibration time (d): 3): 81.5 ± 8.2%
- chemical recovery into PDMS ([1]; equilibration time (d): 6): 88.8 ± 18%
- chemical recovery [2, 5]: 12.9 ± 2.8%
- chemical recovery [2, 6]: 19.9 ± 5.7%
- chemical recovery by SPE of plasma ([3]; equilibration time (d): 1): 2.44 ± 1.2%
- chemical recovery by SPE of plasma ([3]; equilibration time (d): 3): 2.46 ± 0.63%
- chemical recovery by SPE of plasma ([3]; equilibration time (d): 6): 2.62 ± 0.75%

Compound: Cc1ccccc1N [o-Toluidine]
- chemical recovery into PDMS ([1]; equilibration time (d): 1): 0.669 ± 0.41%
- chemical recovery into PDMS ([1]; equilibration time (d): 3): 0.533 ± 0.3%
- chemical recovery into PDMS ([1]; equilibration time (d): 6): 0.369 ± 0.35%
- chemical recovery [2, 5]: 6.06 ± 3.9%
- chemical recovery [2, 6]: 6.06 ± 5.9%
- chemical recovery [2, 7]: 17.2 ± 2.6%
- chemical recovery by SPE of plasma ([3]; equilibration time (d): 1): 4.67 ± 6.8%
- chemical recovery by SPE of plasma ([3]; equilibration time (d): 3): 1.92 ± 0.63%
- chemical recovery by SPE of plasma ([3]; equilibration time (d): 6): 1.2 ± 0.91%

Compound: Cc1ccc(S(N)(=O)=O)cc1 [p-Toluenesulfonamide]
- chemical recovery into PDMS ([1]; equilibration time (d): 1): 2.17 ± 0.29%
- chemical recovery into PDMS ([1]; equilibration time (d): 3): 1.8 ± 0.5%
- chemical recovery into PDMS ([1]; equilibration time (d): 6): 2.08 ± 0.47%
- chemical recovery [2, 7]: 77.9 ± 3.1%
- chemical recovery by SPE of plasma ([3]; equilibration time (d): 1): 51.8 ± 5.5%
- chemical recovery by SPE of plasma ([3]; equilibration time (d): 3): 55.4 ± 4.7%
- chemical recovery by SPE of plasma ([3]; equilibration time (d): 6): 52.8 ± 0.84%
